Measurements: patent US10202389B2, “Pyrazolopyrimidinyl inhibitors of ubiquitin-activating enzyme” (Millennium Pharmaceuticals, Inc., priority 2012, dated 2019)

Molecular target: recombinant human UAE (Homo sapiens (Human), UniProt P22314)
Test: Ubiquitin Activating Enzyme (UAE) HTRF Assay
Conditions: read-out: % inhibition @0.111 μM
Method: After incubation for 120 minutes, quantification of the FRET is performed on the Pherostar (BMG).
For compounds whose values are marked with an asterisk (*), mouse UAE was used. For all other compounds, human UAE was used.

Chain of recombinant human UAE (P22314 whole entry): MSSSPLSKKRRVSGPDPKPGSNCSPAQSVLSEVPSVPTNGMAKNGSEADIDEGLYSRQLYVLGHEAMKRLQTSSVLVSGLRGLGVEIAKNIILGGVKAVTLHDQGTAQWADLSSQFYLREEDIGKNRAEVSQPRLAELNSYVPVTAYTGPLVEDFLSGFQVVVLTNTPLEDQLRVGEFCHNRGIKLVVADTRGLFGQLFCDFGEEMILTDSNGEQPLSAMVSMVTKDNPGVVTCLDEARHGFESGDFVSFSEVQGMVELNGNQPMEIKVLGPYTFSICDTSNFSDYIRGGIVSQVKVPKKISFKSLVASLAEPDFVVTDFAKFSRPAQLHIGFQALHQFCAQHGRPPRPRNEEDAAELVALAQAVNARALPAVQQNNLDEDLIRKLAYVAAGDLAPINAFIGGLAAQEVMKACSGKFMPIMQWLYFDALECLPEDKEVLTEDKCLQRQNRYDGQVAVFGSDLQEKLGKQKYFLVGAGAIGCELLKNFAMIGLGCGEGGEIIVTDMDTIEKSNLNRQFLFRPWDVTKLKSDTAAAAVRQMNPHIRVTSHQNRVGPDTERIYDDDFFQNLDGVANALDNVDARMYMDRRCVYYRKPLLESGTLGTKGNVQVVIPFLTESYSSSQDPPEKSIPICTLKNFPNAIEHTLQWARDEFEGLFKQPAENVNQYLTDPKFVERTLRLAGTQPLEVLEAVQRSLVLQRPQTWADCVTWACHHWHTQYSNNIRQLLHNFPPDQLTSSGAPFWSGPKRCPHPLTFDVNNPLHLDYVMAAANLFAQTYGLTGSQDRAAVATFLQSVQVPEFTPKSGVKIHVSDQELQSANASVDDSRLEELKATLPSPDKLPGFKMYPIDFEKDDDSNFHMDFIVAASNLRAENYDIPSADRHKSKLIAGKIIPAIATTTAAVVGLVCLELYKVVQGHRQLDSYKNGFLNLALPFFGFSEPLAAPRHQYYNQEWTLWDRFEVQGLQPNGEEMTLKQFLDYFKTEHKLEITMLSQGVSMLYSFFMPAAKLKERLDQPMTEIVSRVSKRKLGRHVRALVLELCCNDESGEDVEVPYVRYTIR

SMILES	inhibition at 0.111 µM [%]
NS(=O)(=O)OC[C@H]1C[C@@H](Nc2ccnc3cc(-c4cccc5cnccc45)nn23)[C@H](O)[C@@H]1O (relative stereo) [Compound I-027, (rac)-((1R,2R,3S,4R)-2,3-dihydroxy-4-(2-(isoquinolin-5-yl)pyrazolo[1,5-a]pyrimidin-7-ylamino)cyclopentyl)methyl rel-sulfamate]	100
NS(=O)(=O)OC[C@H]1C[C@@H](Nc2ccnc3cc(-c4csc5ccc(F)cc45)nn23)[C@H](O)[C@@H]1O (relative stereo) [Compound I-081, (rac)-((1R,2R,3S,4R)-4-(2-(5-fluorobenzo[b]thiophen-3-yl)pyrazolo[1,5-a]pyrimidin-7-ylamino)-2,3-dihydroxycyclopentyl)methyl rel-sulfamate]	100
NS(=O)(=O)OC[C@H]1C[C@@H](Nc2ccnc3cc(-c4ccc5c(c4)oc4ccccc45)nn23)[C@H](O)[C@@H]1O (relative stereo) [Compound I-093, (rac)-((1R,2R,3S,4R)-4-(2-(dibenzo[b,d]furan-3-yl)pyrazolo[1,5-a]pyrimidin-7-ylamino)-2,3-dihydroxycyclopentyl)methyl rel-sulfamate]	100
COc1ccc(C(F)(F)F)cc1-c1cc2nccc(N[C@@H]3C[C@H](COS(N)(=O)=O)[C@@H](O)[C@H]3O)n2n1 (relative stereo) [Compound I-065, (rac)-((1R,2R,3S,4R)-2,3-Dihydroxy-4-((2-(2-methoxy-5-(trifluoromethyl)phenyl)-pyrazolo[1,5-a]pyrimidin-7-yl)amino)cyclopentyl)methyl rel-sulfamate]	100
CCCOC(C)(C)c1cccc(-c2cc3nccc(N[C@@H]4C[C@H](COS(N)(=O)=O)[C@@H](O)[C@H]4O)n3n2)c1 (relative stereo) [Compound I-090, (rac)-((1R,2R,3S,4R)-2,3-dihydroxy-4-(2-(3-(2-propoxypropan-2-yl)phenyl)pyrazolo[1,5-a]pyrimidin-7-ylamino)cyclopentyl)methyl rel-sulfamate]	100
COc1ccc(C(C)(C)C)cc1-c1cc2nccc(N[C@@H]3C[C@H](COS(N)(=O)=O)[C@@H](O)[C@H]3O)n2n1 (relative stereo) [Compound I-063, (rac)-((1R,2R,3S,4R)-4-{[2-(5-tert-butyl-2-methoxyphenyl)pyrazolo[1,5-a]pyrimidin-7-yl]amino}-2,3-dihydroxycyclopentyl)methyl rel-sulfamate]	100
NS(=O)(=O)OC[C@H]1C[C@@H](Nc2ccnc3cc(-c4cccc(C(F)(F)F)n4)nn23)[C@H](O)[C@@H]1O (relative stereo) [Compound I-064, (rac)-((1R,2R,3S,4R)-2,3-dihydroxy-4-(2-(6-(trifluoromethyl)pyridin-2-yl)pyrazolo[1,5-a]pyrimidin-7-ylamino)cyclopentyl)methyl rel-sulfamate]	96
NS(=O)(=O)OC[C@H]1C[C@@H](Nc2ccnc3cc(-c4c(OC(F)F)ccc5ccccc45)nn23)[C@H](O)[C@@H]1O [Compound I-110, (s.e.)-((1R,2R,3S,4R)-4-(2-(2-(difluoromethoxy)naphthalen-1-yl)pyrazolo[1,5-a]pyrimidin-7-ylamino)-2,3-dihydroxycyclopentyl)methyl sulfamate]	100
COC(=O)c1ccc2c(-c3cc4nccc(N[C@@H]5C[C@H](COS(N)(=O)=O)[C@@H](O)[C@H]5O)n4n3)cccc2c1 (relative stereo) [Compound I-096, (rac)-methyl rel-5-[7-({(1R,2S,3R,4R)-2,3-dihydroxy-4-[(sulfamoyloxy)methyl]cyclopentyl}amino)pyrazolo[1,5-a]pyrimidin-2-yl]-2-naphthoate]	100
NS(=O)(=O)OC[C@H]1C[C@@H](Nc2ccnc3cc(-c4cccc(SC(F)(F)F)c4)nn23)[C@H](O)[C@@H]1O (relative stereo) [Compound I-044, (rac)-((1R,2R,3S,4R)-2,3-dihydroxy-4-(2-(3-(trifluoromethylthio)phenyl)pyrazolo[1,5-a]pyrimidin-7-ylamino)cyclopentyl)methyl rel-sulfamate]	100
NS(=O)(=O)OC[C@H]1C[C@@H](Nc2c(Cl)cnc3cc(-c4cccc(SC(F)(F)F)c4)nn23)[C@H](O)[C@@H]1O [Compound I-125, (s.e.)-{(1R,2R,3S,4R)-4-[(6-chloro-2-{3-[(trifluoromethyl)sulfanyl]phenyl}pyrazolo[1,5-a]pyrimidin-7-yl)amino]-2,3-dihydroxycyclopentyl}methyl sulfamate]	50
NS(=O)(=O)OC[C@H]1C[C@@H](Nc2ccnc3cc(-c4csc5ccc(Cl)cc45)nn23)[C@H](O)[C@@H]1O (relative stereo) [Compound I-071, (rac)-((1R,2R,3S,4R)-4-(2-(5-chlorobenzo[b]thiophen-3-yl)pyrazolo[1,5-a]pyrimidin-7-ylamino)-2,3-dihydroxycyclopentyl)methyl rel-sulfamate]	100
NS(=O)(=O)OC[C@H]1C[C@@H](Nc2cc(Cl)nc3cc(-c4cccc5ccccc45)nn23)[C@H](O)[C@@H]1O (relative stereo) [Compound I-009, (rac)-((1R,2R,3S,4R)-4-{[5-chloro-2-(1-naphthyl)pyrazolo[1,5-a]pyrimidin-7-yl]amino}-2,3-dihydroxycyclopentyl)methyl rel-sulfamate]	42
NS(=O)(=O)OC[C@H]1C[C@@H](Nc2ccnc3cc(-c4ccc5c(c4)[nH]c4ccccc45)nn23)[C@H](O)[C@@H]1O (relative stereo) [Compound I-062, (rac)-[(1R,2R,3S,4R)-4-{[2-(9H-carbazol-2-yl)pyrazolo[1,5-a]pyrimidin-7-yl]amino}-2,3-dihydroxycyclopentyl]methyl rel-sulfamate]	100
NS(=O)(=O)OC[C@H]1C[C@@H](Nc2ccnc3cc(-c4cccc5c4sc4ccccc45)nn23)[C@H](O)[C@@H]1O (relative stereo) [Compound I-056, (rac)-((1R,2R,3S,4R)-4-((2-(Dibenzo[b,d]thiophen-4-yl)pyrazolo[1,5-a]pyrimidin-7-yl)amino)-2,3-dihydroxycyclopentyl)methyl rel-sulfamate]	100
CC(C)(c1cccc(-c2cc3nccc(N[C@@H]4C[C@H](COS(N)(=O)=O)[C@@H](O)[C@H]4O)n3n2)c1)C(F)(F)F (relative stereo) [Compound I-058, (rac)-((1R,2R,3S,4R)-2,3-dihydroxy-4-(2-(3-(1,1,1-trifluoro-2-methylpropan-2-yl)phenyl)pyrazolo[1,5-a]pyrimidin-7-ylamino)cyclopentyl)methyl rel-sulfamate]	100
NS(=O)(=O)OC[C@H]1C[C@@H](Nc2ccnc3cc(-c4ccc(C(F)(F)F)s4)nn23)[C@H](O)[C@@H]1O (relative stereo) [Compound I-060, (rac)-((1R,2R,3S,4R)-2,3-Dihydroxy-4-((2-(5-(trifluoromethyl)thiophen-2-yl)pyrazolo[1,5-a]pyrimidin-7-yl)amino)cyclopentyl)methyl rel-sulfamate]	89
COc1ccc(-c2cc3nc(Cl)cc(N[C@@H]4C[C@H](COS(N)(=O)=O)[C@@H](O)[C@H]4O)n3n2)cc1 (relative stereo) [Compound I-014, (rac)-[(1R,2R,3S,4R)-4-{[5-chloro-2-(4-methoxyphenyl)pyrazolo[1,5-a]pyrimidin-7-yl]amino}-2,3-dihydroxycyclopentyl]methyl rel-sulfamate]	30
